Source: US5912269A, “Butyrate prodrugs derived from lactic acid” (Vertex Pharmaceuticals, Inc., priority 1996, dated 1999)
Like-named read-outs stand apart in the source and are kept apart here.

What was measured:
[1] = system: Fetal hemoglobin cells (F cells); experiment: Fetal hemoglobin cells (% F cells), efficacy study in anemic rhesus monkeys; format: in vivo
Hemoglobin F = Hemoglobin F level in total hemoglobin (% Hb F) by HPLC, efficacy study in anemic rhesus monkeys; format: in vivo
Procedure: (§1) The efficacy of compound IIIc administered in conjunction with hydroxyurea was tested on six anemic rhesus monkeys divided into three groups of two each. Each group was studied in two phases, as shown below. Fetal hemoglobin cells (F cells), Hemoglobin F level in total Hemoglobin (% Hb F) and % γ globin chain levels were monitored before and after each of the two phases. % F cells were measured according to the protocol described in Betke et al, Blut., 4, pp. 241-9 (1958). % Hb F and % γ globin chain synthesis were measured using High Performance Liquid Chromatography (HPLC) according to the protocol described in Huisman, J. Chromagtogr., 418, pp. 277 (1987).

[2] = system: sickle cell anemia patients; settings: cited from earlier work
[3] = rhesus monkey, in vivo
γ globin chain = experiment: % γ globin chain levels by HPLC, efficacy study in anemic rhesus monkeys; format: in vivo
Procedure: as §1

[4] = Triglyceride and ALT levels during efficacy study in anemic rhesus monkeys; settings: all three groups, prior to or during the two phases
[5] = cited from earlier work
[6] = Group I (hydroxyurea in Phase I, hydroxyurea + compound IIIc in Phase II)
[7] = Groups II and III (compound IIIc)

For NC(=O)NO [Hydroxyurea, hydroxyurea], the “% F cell count at the end of Phase I” value ([1]; Animal 1, group I, hydroxyurea 50 mg/kg/day, 5 weeks, 8-10% before Phase I) is given as 25%, the “% Hb F level” value (Hemoglobin F; [6]) is given as “measurable increase” and the “fetal hemoglobin production and sickling crisis” value [2] is given as “stimulates fetal hemoglobin production and reduces sickling crisis”. For the same molecule, the “levels of ALT” value [3] was “no detectable difference”, the “levels of the triglycerides” value [3] was “no detectable difference” and the “% γ-globin chain levels” value (γ globin chain; [6]) was “measurable increase”.

For CCCC(=O)O[C@@H](C)C(=O)OCC [Compound IIIc], the “% F cell count at the end of Phase II” value ([1]; Animal 2, group II, compound IIIc 1 g/kg/TID, 5 weeks, 8-10% before Phase I) was 22%, the “% F cell count at the end of Phase I” value ([1]; Animal 2, group II, compound IIIc 1 g/kg/day, 5 weeks, 8-10% before Phase I) was 15% and the “increase in % F cells” value [1, 7] was “small but significant increase”. The “levels of ALT” value [4] was “no detectable difference”, the “levels of the triglycerides” value [4] was “no detectable difference” and the HbF (Hemoglobin F; [7]) was “no measurable change”. For the same molecule, the γ-globin chain levels (γ globin chain; [7]) was “no measurable change”.

For CCCC(=O)OCOC(=O)C(C)(C)C [AN-9], the “formaldehyde-producing metabolites in vivo” value [5] is listed as “elicit metabolites that may produce formaldehyde in vivo”.
